In patent US11279735B2, “Cyclic peptide antibiotics” (priority 2017, dated 2022):
≈ marks a conversion by molar mass, not a printed value. *1 amine or outer side, *2 acyl side, *3 side chain or, on linkers, in order; H or OH if unused. Where a SMILES comes first, the peptide text is derived from it. [ ]: non-standard residue; d: D form. The star is where a group is joined. X13 = C[C@H](CO[C@H](CC1CC2(CCC2)C1)[C@@H](C)C(=O)[*:2])N[*:1]; X1 = CCCCCC[C@@H](C(=O)[*:2])[C@@H](C)OC[C@@H](C)N[*:1]; X2 = CCCCCC[C@@H](OC[C@@H](C)N[*:1])[C@@H](C)C(=O)[*:2]; X21 = C[C@H](CO[C@@H]1CCCCCC[C@H]1C(=O)[*:2])N[*:1]; Cyclobutyl(trans-3-NH2) = N[C@H]1C[C@H](*)C1; Gly(cHept) = N[C@H](C(=O)O)C1CCCCCC1; Propyl(3-guanidino) = N=C(N)NCCC*; aThr = C[C@H](O)[C@H](N)C(=O)O; NMeL = CN[C@@H](CC(C)C)C(=O)O; Chg = N[C@H](C(=O)O)C1CCCCC1; NMeNva = CCC[C@H](NC)C(=O)O; Dap = NC[C@H](N)C(=O)O; X15 = OC[C@@H](O)C*; X4 = NCC(F)(F)C*

test system: Escherichia coli (E. coli) strain CFT073 ATCC 700928; assay type: cell-based; settings: ATCC 700928, 22 h
Procedure: In vitro antimicrobial activity of each compound was determined by measuring minimal inhibitor concentrations (MICs) using the broth micro-dilution technique as approved by the Clinical and Laboratory Standards Institute (CLSI) (Methods for Dilution Antimicrobial Susceptibility Tests for Bacteria that Grow Aerobically; Approved Standard—Eighth Edition. CLSI document M07-A8. Wayne, Pa.: Clinical and Laboratroy Standards; 2009). Antibacterial activity was measure against Escherichia coli (E. coli) strain CFT073 ATCC 700928, which is a clinically relevant Gram-negative strain. Cells were inoculated onto plates of Mueller Hinton Agar and grown at 37° C. for 16-18 hours. Inocula suspensions were prepared by scraping cells into 1 mL of testing media (Mueller Hinton II cation adjusted Broth supplemented with 0.002% v/v Tween-80) and diluting to a final OD600 nm of 0.01.
Test compounds were prepared in DMSO at a concentration of 100 uM The compounds were tested under several different dilution formats and the data are reported in Tables 6, 7 and 8. In protocol 1, the compound stocks were diluted into testing media at a concentration of 64 μg/ml and serial 2-fold dilutions were made in the same media, in 96-well U bottom microtiter dishes, for a total of 10 compound concentrations. In protocol 2, the compound stocks were diluted into testing media at a concentration of 4 μg/mL and serial 2-fold dilutions were made in the same media, in 96-well U bottom microtiter dishes, for a total of 10 compound concentrations. In protocol 3, compound stocks were diluted into testing media at a concentration of 0.5 μg/mL, with serial 2-fold dilutions conducted as described above. In protocol 4, compound stocks were diluted into testing media at a concentration of 0.13 μg/mL, with serial 2-fold dilutions conducted as described above. Inocula suspensions were added to the 2-fold serial dilutions of test compounds to a final density of OD OD600 nm of 0.0005 and incubated at 35° C. for 22 hours.

Row | MIC [µM] | Structure (SMILES)
1 | 8.7 (≈ 6.3 µg/mL) | CCCCCC[C@H]1OC(=O)CNC(=O)[C@H](COCCCN)NC(=O)[C@H](CN)NC(=O)[C@H](C2CCCCC2)NC(=O)[C@H](CC(C)C)N(C)C(=O)[C@@H]1C [Example 51, (6S,9S,12S,15S,18R,19R)-9-(Aminomethyl)-6-((3-aminopropoxy)methyl)-12-cyclohexyl-19-hexyl-15-isobutyl-16,18-dimethyl-1-oxa-4,7,10,13,16-pentaazacyclononadecane-2,5,8,11,14,17-hexaone]
2 | 50 (≈ 35.4 µg/mL) | CCCCCC[C@H]1OC(=O)CNC(=O)[C@H](CNC(N)=O)NC(=O)[C@H](CN)NC(=O)[C@H](C2CCCCC2)NC(=O)[C@H](CC(C)C)N(C)C(=O)[C@@H]1C [Example 116, [(6S,9S,12S,15S,18R,19R)-9-(aminomethyl)-12-cyclohexyl-19-hexyl-15-isobutyl-16,18-dimethyl-2,5,8,11,14,17-hexaoxo-1-oxa-4,7,10,13,16-pentazacyclononadec-6-yl]methylurea]
3 | 12 (≈ 9.12 µg/mL) | CCCCCC[C@H]1OC[C@@H](C)NC(=O)[C@H](COCC(F)(F)CN)NC(=O)[C@H](CN)NC(=O)[C@H](C2CCCCC2)NC(=O)[C@H](CC(C)C)N(C)C(=O)[C@@H]1C [Example 81, (3R,6S,9S,12S,15S,18R,19R)-6-((3-Amino-2,2-difluoropropoxy)methyl)-9-(aminomethyl)-12-cyclohexyl-19-hexyl-15-isobutyl-3,16,18-trimethyl-1-oxa-4,7,10,13,16-pentaazacyclononadecane-5,8,11,14,17-pentaone] (cyclo([Chg][Dap]S(X4)[X2][NMeL]))
4 | 4.4 (≈ 3.37 µg/mL) | CCCCCC[C@H]1OC[C@@H](C)NC(=O)[C@H](COCCCNC(=N)N)NC(=O)[C@H](CN)NC(=O)[C@H](C2CCCCC2)NC(=O)[C@H](CC(C)C)N(C)C(=O)[C@@H]1C [Example 82, 1-(3-(((3R,6S,9S,12S,15S,18R,19R)-9-(Aminomethyl)-12-cyclohexyl-19-hexyl-15-isobutyl-3,16,18-trimethyl-5,8,11,14,17-pentaoxo-1-oxa-4,7,10,13,16-pentaazacyclononadecan-6-yl)methoxy)propyl)guanidine] (cyclo([Chg][Dap]S(Propyl(3-guanidino))[X2][NMeL]))
5 | 8.8 (≈ 6.52 µg/mL) | CCCCCC[C@H]1OC[C@@H](C)NC(=O)[C@H](COC[C@H](O)CO)NC(=O)[C@H](CN)NC(=O)[C@H](C2CCCCC2)NC(=O)[C@H](CC(C)C)N(C)C(=O)[C@@H]1C [Example 136, (3R,6S,9S,12S,15S,18R,19R)-9-(aminomethyl)-12-cyclohexyl-19-hexyl-15-isobutyl-3,16,18-trimethyl-6-[[(2R)-2,3-dihydroxypropoxy]methyl]-1-oxa-4,7,10,13,16-pentazacyclononadecane-5,8,11,14,17-pentone] (cyclo([Chg][Dap]S(X15)[X2][NMeL]))

The remaining lines, values behind:

Row | Structure (SMILES) | MIC [µM]
6 | CCC[C@H]1C(=O)N[C@@H](C2CCCCC2)C(=O)N[C@@H](CN)C(=O)N[C@@H]([C@H](C)O)C(=O)N[C@H](C)CO[C@H](CC2CC3(CCC3)C2)[C@@H](C)C(=O)N1C [Example 156, (3R,6S,9S,12S,15S,18R,19R)-9-(Aminomethyl)-12-cyclohexyl-6-((S)-1-hydroxyethyl)-3,16,18-trimethyl-15-propyl-19-(spiro[3.3]heptan-2-ylmethyl)-1-oxa-4,7,10,13,16-pcntaazacyclononadecane-5,8,11,14,17-pentaone] (cyclo([Chg][Dap][aThr][X13][NMeNva])) | 2.2 (≈ 1.52 µg/mL)
7 | CCCCCC[C@H]1OC[C@@H](C)NC(=O)[C@H](CO[C@H]2C[C@H](N)C2)NC(=O)[C@H](CN)NC(=O)[C@H](C2CCCCCC2)NC(=O)[C@H](CCC)N(C)C(=O)[C@@H]1C [Example 146, (3R,6S,9S,12S,15S,18R,19R)-6-[(3-aminocyclobutoxy)methyl]-9-(aminomethyl)-12-cycloheptyl-19-hexyl-3,16,18-trimethyl-15-propyl-1-oxa-4,7,10,13,16-pentazacyclononadecane-5,8,11,14,17-pentone] (cyclo([Dap]S(Cyclobutyl(trans-3-NH2))[X2][NMeNva][Gly(cHept)])) | 6.3 (≈ 4.64 µg/mL)
8 | CCCCCC[C@H]1OC(=O)CNC(=O)[C@H]([C@H](C)O)NC(=O)[C@H](CO)NC(=O)[C@H](C2CCCCC2)NC(=O)[C@H](CCC)N(C)C(=O)[C@@H]1C [Example 132, (6S,9S,12S,15S,18R,19R)-12-cyclohexyl-19-hexyl-9-(hydroxymethyl)-16,18-dimethyl-15-propyl-6-[(1S)-1-hydroxyethyl]-1-oxa-4,7,10,13,16-pentazacyclononadecane-2,5,8,11,14,17-hexone] | 6.1 (≈ 4.07 µg/mL)
9 | CCCCCC[C@H]1OC(=O)CNC(=O)[C@H]([C@H](C)O)NC(=O)[C@H](CN)NC(=O)[C@H](CC(C)C)NC(=O)[C@H](CC(C)C)N(C)C(=O)[C@@H]1C [Example 90, (6S,9S,12S,15S,18R,19R)-9-(aminomethyl)-19-hexyl-12,15-diisobutyl-16,18-dimethyl-6-[(1S)-1-hydroxyethyl]-1-oxa-4,7,10,13,16-pentazacyclononadecane-2,5,8,11,14,17-hexone] | 21 (≈ 13.8 µg/mL)
10 | CCCCCC[C@H]1OC(=O)CNC(=O)[C@H]([C@H](C)O)NC(=O)[C@H](CN)NC(=O)[C@H](C2CCCCC2)NC(=O)[C@H](CC(C)C)N(C)C(=O)[C@@H]1Cc1cccc(C)c1 [Example 119, (6S,9S,12S,15S,18R,19R)-9-(aminomethyl)-12-cyclohexyl-19-hexyl-15-isobutyl-16-methyl-18-(m-tolylmethyl)-6-[(1S)-1-hydroxyethyl]-1-oxa-4,7,10,13,16-pentazacyclononadecane-2,5,8,11,14,17-hexone] | 3.1 (≈ 2.39 µg/mL)
11 | CCCCCCCCCC[C@H]1OC(=O)CNC(=O)[C@H](CN)NC(=O)[C@H](CO)NC(=O)[C@H]([C@@H](C)CC)NC(=O)[C@H](CC(C)C)N(C)C(=O)[C@@H]1C [Example 19, (6S,9S,12S,15S,18R,19R)-6-(aminomethyl)-19-decyl-9-(hydroxymethyl)-15-isobutyl-16,18-dimethyl-12-[(1S)-1-methylpropyl]-1-oxa-4,7,10,13,16-pentazacyclononadecane-2,5,8,11,14,17-hexone] | 25 (≈ 17.4 µg/mL)
12 | CCCCCCCCCC[C@H]1OC(=O)CNC(=O)[C@H]([C@H](C)O)NC(=O)[C@H](CN)NC(=O)[C@H]([C@H](C)CC)NC(=O)[C@H](CCC(C)C)N(C)C(=O)[C@@H]1C [Example 15, (6S,9S,12S,15S,18R,19R)-9-(aminomethyl)-19-decyl-6-[(1S)-1-hydroxyethyl]-15-isopentyl-16,18-dimethyl-12-[(1R)-1-methylpropyl]-1-oxa-4,7,10,13,16-pentazacyclononadecane-2,5,8,11,14,17-hexone] | 6.3 (≈ 4.57 µg/mL)
13 | CCCCCC[C@H]1C(=O)N(C)[C@@H](CCC)C(=O)N[C@@H](C2CCCCC2)C(=O)N[C@@H](CN)C(=O)N[C@@H]([C@H](C)O)C(=O)N[C@H](C)CO[C@@H]1C [Example 150, (3R,6S,9S,12S,15S,18R,19R)-9-(Aminomethyl)-12-cyclohexyl-18-hexyl-6-((S)-1-hydroxyethyl)-3,16,19-trimethyl-15-propyl-1-oxa-4,7,10,13,16-pentaazacyclononadecane-5,8,11,14,17-pentaone] (cyclo([Chg][Dap][aThr][X1][NMeNva])) | 25 (≈ 16.7 µg/mL)
14 | CCCCCC[C@H]1OC(=O)CNC(=O)[C@H](CNC(=O)CN(C)C)NC(=O)[C@H](CN)NC(=O)[C@H](C2CCCCC2)NC(=O)[C@H](CC(C)C)N(C)C(=O)[C@@H]1C [Example 143, 2-(dimethylamino)-N-[[(6S,9S,12S,15S,18R,19R)-9-(aminomethyl)-12-cyclohexyl-19-hexyl-15-isobutyl-16,18-dimethyl-2,5,8,11,14,17-hexaoxo-1-oxa-4,7,10,13,16-pentazacyclononadec-6-yl]methyl]acetamide] | 25 (≈ 18.8 µg/mL)
15 | CCC[C@H]1C(=O)N[C@@H](C2CCCCC2)C(=O)N[C@@H](CN)C(=O)N[C@@H]([C@H](C)O)C(=O)N[C@H](C)CO[C@@H]2CCCCCC[C@H]2C(=O)N1C [Example 86, (3R,6S,9S,12S,15S,17aR,23aR)-9-(Aminomethyl)-12-cyclohexyl-6-((S)-1-hydroxyethyl)-3,16-dimethyl-15-propyloctadecahydrocycloocta[r][1]oxa[4,7,10,13,16]pentaazacyclononadecine-5,8,11,14,17(2H)-pentaone] (cyclo([Chg][Dap][aThr][X21][NMeNva])) | 50 (≈ 32.5 µg/mL)
16 | CCCCCCCCCC[C@H]1OC(=O)CNC(=O)[C@H]([C@H](C)O)NC(=O)[C@H](CO)NC(=O)[C@H]([C@@H](C)CC)NC(=O)[C@H](CCC)N(C)C(=O)[C@@H]1C [Example 32, (6S,9S,12S,15S,18R,19R)-19-decyl-6-[(1S)-1-hydroxyethyl]-9-(hydroxymethyl)-16,18-dimethyl-12-[(1S)-1-methylpropyl]-15-propyl-1-oxa-4,7,10,13,16-pentazacyclononadecane-2,5,8,11,14,17-hexone] | 9.4 (≈ 6.56 µg/mL)
